#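 Results reflect a 48-hour exposure of cells in 96-well plates to compound at five concentrations. Abbreviation: GI50, concentration required for 50% inhibition of growth. TGI denotes the concentration required for complete inhibition of growth.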
# Legend:
# Assay in all cases: growth of human tumour cells (NCI), 48 h
# CAKI-1 renal = system: CAKI-1 renal
# NCI-H226 lung = system: NCI-H226 lung
# EKVX NSCLC = system: EKVX NSCLC
# TK-10 renal = system: TK-10 renal
# HL-60(TB) leukemia = system: HL-60(TB) leukemia
# MDA-MB-231 breast = system: MDA-MB-231 breast
# SNB-75 CNS = system: SNB-75 CNS
# SR leukemia = system: SR leukemia
# MALME-3M melanoma = system: MALME-3M melanoma
# OVCAR-3 ovarian = system: OVCAR-3 ovarian
# SK-MEL-5 melanoma = system: SK-MEL-5 melanoma
# UO-31 renal = system: UO-31 renal
# KM12 colon = system: KM12 colon
# NCI-H522 lung = system: NCI-H522 lung
# COLO 205 colon = system: COLO 205 colon
# HOP-92 NSCLC = system: HOP-92 NSCLC
# SW-620 colon = system: SW-620 colon
# UACC-257 melanoma = system: UACC-257 melanoma
# OVCAR-5 ovarian = system: OVCAR-5 ovarian
# RXF 393 renal = system: RXF 393 renal
# SK-MEL-2 melanoma = system: SK-MEL-2 melanoma
# HT29 colon = system: HT29 colon
# DU-145 prostate = system: DU-145 prostate
# SNB-19 CNS = system: SNB-19 CNS
# HCC-2998 colon = system: HCC-2998 colon
# OVCAR-4 ovarian = system: OVCAR-4 ovarian
# RPMI-8226 leukemia = system: RPMI-8226 leukemia
# MDA-MB-468 breast = system: MDA-MB-468 breast
# U251 CNS = system: U251 CNS
# LOX IMVI melanoma = system: LOX IMVI melanoma
# 786-0 renal = system: 786-0 renal
# T-47D breast = system: T-47D breast
# HCT-15 colon = system: HCT-15 colon
# OVCAR-8 ovarian = system: OVCAR-8 ovarian
# HOP-62 NSCLC = system: HOP-62 NSCLC
# UACC-62 melanoma = system: UACC-62 melanoma
# PC-3 prostate = system: PC-3 prostate
# K-562 leukemia = system: K-562 leukemia
# SF-539 CNS = system: SF-539 CNS
# A549 NSCLC = system: A549 NSCLC
# SK-OV-3 ovarian = system: SK-OV-3 ovarian
# SF-295 CNS = system: SF-295 CNS
# M14 melanoma = system: M14 melanoma
# NCI-H23 lung = system: NCI-H23 lung
# MOLT-4 leukemia = system: MOLT-4 leukemia
# SN12C renal = system: SN12C renal
# IGROV1 ovarian = system: IGROV1 ovarian
# SF-268 CNS = system: SF-268 CNS
# A498 renal = system: A498 renal
# CCRF-CEM leukemia = system: CCRF-CEM leukemia
# SK-MEL-28 melanoma = system: SK-MEL-28 melanoma
# NCI-H460 lung = system: NCI-H460 lung
# HCT-116 colon = system: HCT-116 colon
# MCF7 breast = system: MCF7 breast
# MDA-MB-435 = system: MDA-MB-435
# ACHN renal = system: ACHN renal
# HS 578T breast = system: HS 578T breast
# BT-549 breast = system: BT-549 breast
smiles,measurement,setting,value
COc1cc2cc(C(=O)N3C[C@@H](CCl)c4c3cc(OC(=O)N(CCC(=O)N3CCN(C)CC3)C3CCCCC3)c3ccccc43)[nH]c2c(OC)c1OC,GI50,CAKI-1 renal,1490 nM
same,TGI,CAKI-1 renal,7650 nM
same,GI50,NCI-H226 lung,1440 nM
same,TGI,NCI-H226 lung,4210 nM
same,GI50,EKVX NSCLC,1950 nM
same,TGI,EKVX NSCLC,5890 nM
same,GI50,TK-10 renal,2850 nM
same,TGI,TK-10 renal,8530 nM
same,GI50,HL-60(TB) leukemia,751 nM
same,TGI,HL-60(TB) leukemia,3730 nM
same,GI50,MDA-MB-231 breast,3070 nM
same,TGI,MDA-MB-231 breast,8630 nM
same,GI50,SNB-75 CNS,1290 nM
same,TGI,SNB-75 CNS,3700 nM
same,GI50,SR leukemia,276 nM
same,TGI,SR leukemia,1930 nM
same,GI50,MALME-3M melanoma,1570 nM
same,TGI,MALME-3M melanoma,3050 nM
same,GI50,OVCAR-3 ovarian,2100 nM
same,TGI,OVCAR-3 ovarian,4670 nM
same,GI50,SK-MEL-5 melanoma,1640 nM
same,TGI,SK-MEL-5 melanoma,3220 nM
same,GI50,UO-31 renal,1880 nM
same,TGI,UO-31 renal,6340 nM
same,GI50,KM12 colon,2070 nM
same,TGI,KM12 colon,7250 nM
same,GI50,NCI-H522 lung,1700 nM
same,TGI,NCI-H522 lung,4530 nM
same,GI50,COLO 205 colon,1370 nM
same,TGI,COLO 205 colon,2800 nM
same,GI50,HOP-92 NSCLC,2500 nM
same,TGI,HOP-92 NSCLC,9460 nM
same,GI50,SW-620 colon,1890 nM
same,TGI,SW-620 colon,12600 nM
same,GI50,UACC-257 melanoma,1990 nM
same,TGI,UACC-257 melanoma,4630 nM
same,GI50,OVCAR-5 ovarian,5110 nM
same,TGI,OVCAR-5 ovarian,27900 nM
same,GI50,RXF 393 renal,1060 nM
same,TGI,RXF 393 renal,2460 nM
same,GI50,SK-MEL-2 melanoma,1980 nM
same,TGI,SK-MEL-2 melanoma,3500 nM
same,GI50,HT29 colon,1520 nM
same,TGI,HT29 colon,4240 nM
same,GI50,DU-145 prostate,456 nM
same,TGI,DU-145 prostate,4630 nM
same,GI50,SNB-19 CNS,2220 nM
same,TGI,SNB-19 CNS,20000 nM
same,GI50,HCC-2998 colon,1520 nM
same,TGI,HCC-2998 colon,3480 nM
same,GI50,OVCAR-4 ovarian,2340 nM
same,TGI,OVCAR-4 ovarian,6350 nM
same,GI50,RPMI-8226 leukemia,1470 nM
same,TGI,RPMI-8226 leukemia,5080 nM
same,GI50,MDA-MB-468 breast,688 nM
same,TGI,MDA-MB-468 breast,2290 nM
same,GI50,U251 CNS,1510 nM
same,TGI,U251 CNS,4460 nM
same,GI50,LOX IMVI melanoma,1100 nM
same,TGI,LOX IMVI melanoma,2760 nM
same,GI50,786-0 renal,1730 nM
same,TGI,786-0 renal,10100 nM
same,GI50,T-47D breast,1900 nM
same,TGI,T-47D breast,6630 nM
same,GI50,HCT-15 colon,1730 nM
same,TGI,HCT-15 colon,6710 nM
same,GI50,OVCAR-8 ovarian,1660 nM
same,TGI,OVCAR-8 ovarian,10100 nM
same,GI50,HOP-62 NSCLC,594 nM
same,TGI,HOP-62 NSCLC,9110 nM
same,GI50,UACC-62 melanoma,1530 nM
same,TGI,UACC-62 melanoma,3280 nM
same,GI50,PC-3 prostate,3140 nM
same,TGI,PC-3 prostate,> 100000 nM
same,GI50,K-562 leukemia,677 nM
same,TGI,K-562 leukemia,20300 nM
same,GI50,SF-539 CNS,1310 nM
same,TGI,SF-539 CNS,3870 nM
same,GI50,A549 NSCLC,1990 nM
same,TGI,A549 NSCLC,> 100000 nM
same,GI50,SK-OV-3 ovarian,2150 nM
same,TGI,SK-OV-3 ovarian,9350 nM
same,GI50,SF-295 CNS,1550 nM
same,TGI,SF-295 CNS,6790 nM
same,GI50,M14 melanoma,1520 nM
same,TGI,M14 melanoma,4240 nM
same,GI50,NCI-H23 lung,471 nM
same,TGI,NCI-H23 lung,1930 nM
same,GI50,MOLT-4 leukemia,594 nM
same,TGI,MOLT-4 leukemia,10100 nM
same,GI50,SN12C renal,1200 nM
same,TGI,SN12C renal,10200 nM
same,GI50,IGROV1 ovarian,2310 nM
same,TGI,IGROV1 ovarian,7760 nM
same,GI50,SF-268 CNS,1540 nM
same,TGI,SF-268 CNS,7450 nM
same,GI50,A498 renal,2770 nM
same,TGI,A498 renal,5270 nM
same,GI50,CCRF-CEM leukemia,993 nM
same,TGI,CCRF-CEM leukemia,12100 nM
same,GI50,SK-MEL-28 melanoma,3580 nM
same,TGI,SK-MEL-28 melanoma,8960 nM
same,GI50,NCI-H460 lung,512 nM
same,TGI,NCI-H460 lung,10700 nM
same,GI50,HCT-116 colon,1500 nM
same,TGI,HCT-116 colon,9940 nM
same,GI50,MCF7 breast,318 nM
same,TGI,MCF7 breast,2630 nM
same,GI50,MDA-MB-435,1780 nM
same,TGI,MDA-MB-435,3650 nM
same,GI50,ACHN renal,493 nM
same,TGI,ACHN renal,10700 nM
same,GI50,HS 578T breast,2420 nM
same,TGI,HS 578T breast,7110 nM
same,GI50,BT-549 breast,1590 nM
same,TGI,BT-549 breast,4220 nM

# — PubChem BioAssay (NCI)
